Measured values published in PubChem BioAssay AID256 (DTP/NCI, 2004).
Several values for one entry are separate records, joined by “and”; a condition that tells them apart may be missing. Equal values may be shown once. Toxic doses and inconclusive results are not listed. How the source made its calls: active means survival T/C of 150% or more; inactive means T/C below 125% in these data.

Test system: CD2F1 mice, L1210 leukemia ip, survival T/C
Experiment: NCI In Vivo Anticancer Drug Screen. Data for tumor model L1210 Leukemia (intraperitoneal) in CD2F1 (CDF1) mice
Conditions: higher = longer survival
Protocol: The antitumor activity of compounds was measured in mice bearing transplantable tumors. Survival or tumor size were measured and the results are expressed as the measurement made in the treated group (T) divided by the measurement made in the vehicle treated control group (C). The tumor model used in this assay is L1210 Leukemia (intraperitoneal) in CD2F1 (CDF1) mice

[1] = endpoint: mean survival time, dose: 100.0 mg/kg/injection, schedule: Q04DX002 (ip), vehicle: saline with Tween-80
[2] = endpoint: mean survival time, dose: 200.0 mg/kg/injection, schedule: Q04DX002 (ip), vehicle: saline with Tween-80
[3] = endpoint: mean survival time, dose: 100.0 mg/kg/injection, schedule: Q01DX009 (ip), vehicle: saline with Tween-80
[4] = endpoint: mean survival time, dose: 200.0 mg/kg/injection, schedule: Q01DX009 (ip), vehicle: saline with Tween-80
[5] = endpoint: mean survival time, dose: 400.0 mg/kg/injection, schedule: Q01DX009 (ip), vehicle: saline with Tween-80

Measured: T/C

Cc1nc(N)nc(N)c1-c1ccc(Cl)c(Cl)c1
inactive: endpoint: mean survival time, dose: 1.0 mg/kg/injection, schedule: Q01DX009 (ip), vehicle: Klucel (hydroxypropylcellulose) (HPC) 106 % of control | endpoint: mean survival time, dose: 1.0 mg/kg/injection, schedule: Q01DX009 (ip), vehicle: saline with Tween-80 107 % of control | endpoint: mean survival time, dose: 1.0 mg/kg/injection, schedule: Q02DX005 (ip), vehicle: saline 115 % of control | endpoint: mean survival time, dose: 1.25 mg/kg/injection, schedule: Q01DX005 (ip), vehicle: distilled water + Tween-80 95 % of control | endpoint: mean survival time, dose: 1.25 mg/kg/injection, schedule: Q01DX005 (ip), vehicle: water 104 % of control | endpoint: mean survival time, dose: 1.3 mg/kg/injection, schedule: Q01DX009 (sc), vehicle: other 123 % of control | endpoint: mean survival time, dose: 2.0 mg/kg/injection, schedule: Q01DX009 (ip), vehicle: Klucel (hydroxypropylcellulose) (HPC) 107 % of control | endpoint: mean survival time, dose: 2.0 mg/kg/injection, schedule: Q01DX009 (ip), vehicle: saline with Tween-80 119 % of control | endpoint: mean survival time, dose: 2.0 mg/kg/injection, schedule: Q02DX005 (ip), vehicle: saline 115 % of control | endpoint: mean survival time, dose: 2.5 mg/kg/injection, schedule: Q01DX005 (ip), vehicle: distilled water + Tween-80 93 % of control | endpoint: mean survival time, dose: 2.5 mg/kg/injection, schedule: Q01DX005 (ip), vehicle: water 100 % of control | endpoint: mean survival time, dose: 4.0 mg/kg/injection, schedule: Q01DX009 (ip), vehicle: Klucel (hydroxypropylcellulose) (HPC) 109 % of control | endpoint: mean survival time, dose: 4.0 mg/kg/injection, schedule: Q02DX005 (ip), vehicle: saline 107 % of control | endpoint: mean survival time, dose: 4.0 mg/kg/injection, schedule: Q03DX002 (ip), vehicle: saline with Tween-80 108 % of control | endpoint: mean survival time, dose: 5.0 mg/kg/injection, schedule: Q01DX005 (ip), vehicle: distilled water + Tween-80 98 % of control | endpoint: mean survival time, dose: 5.0 mg/kg/injection, schedule: Q01DX005 (ip), vehicle: water 100 % of control | endpoint: mean survival time, dose: 5.0 mg/kg/injection, schedule: Q02DX005 (ip), vehicle: saline 87 % of control | endpoint: mean survival time, dose: 5.0 mg/kg/injection, schedule: Q## X005 (ip), vehicle: saline 117 % of control | endpoint: mean survival time, dose: 6.0 mg/kg/injection, schedule: Q03DX002 (ip), vehicle: saline with Tween-80 103 % of control | endpoint: mean survival time, dose: 8.0 mg/kg/injection, schedule: Q03DX002 (ip), vehicle: saline with Tween-80 93 % of control | endpoint: mean survival time, dose: 10.0 mg/kg/injection, schedule: Q01DX005 (ip), vehicle: distilled water + Tween-80 102 % of control | endpoint: mean survival time, dose: 10.0 mg/kg/injection, schedule: Q01DX005 (ip), vehicle: water 98 % of control | endpoint: mean survival time, dose: 10.0 mg/kg/injection, schedule: Q03DX002 (ip), vehicle: saline with Tween-80 110 % of control | endpoint: mean survival time, dose: 10.0 mg/kg/injection, schedule: Q## X005 (ip), vehicle: saline 102 % of control | endpoint: mean survival time, dose: 12.0 mg/kg/injection, schedule: Q03DX002 (ip), vehicle: saline with Tween-80 117 % of control | endpoint: mean survival time, dose: 16.0 mg/kg/injection, schedule: Q01DX009 (ip), vehicle: Klucel (hydroxypropylcellulose) (HPC) 111 % of control | endpoint: mean survival time, dose: 20.0 mg/kg/injection, schedule: Q01DX005 (ip), vehicle: distilled water + Tween-80 100 % of control | endpoint: mean survival time, dose: 20.0 mg/kg/injection, schedule: Q01DX005 (ip), vehicle: water 98 % of control | endpoint: mean survival time, dose: 20.0 mg/kg/injection, schedule: Q04DX002 (ip), vehicle: saline 97 % of control | endpoint: mean survival time, dose: 20.0 mg/kg/injection, schedule: Q## X005 (ip), vehicle: saline 88 % of control | endpoint: mean survival time, dose: 30.0 mg/kg/injection, schedule: Q04DX002 (ip), vehicle: saline 107 % of control | endpoint: mean survival time, dose: 40.0 mg/kg/injection, schedule: Q04DX002 (ip), vehicle: saline 118 % of control and 103 % of control | endpoint: mean survival time, dose: 50.0 mg/kg/injection, schedule: Q04DX002 (ip), vehicle: saline 100 % of control | endpoint: mean survival time, dose: 60.0 mg/kg/injection, schedule: Q04DX002 (ip), vehicle: saline 108 % of control | endpoint: mean survival time, dose: 75.0 mg/kg/injection, schedule: Q04DX003 (ip), vehicle: saline 118 % of control | endpoint: median survival time, dose: 0.62 mg/kg/injection, schedule: Q01DX009 (ip), vehicle: saline 96 % of control | endpoint: median survival time, dose: 1.25 mg/kg/injection, schedule: Q01DX009 (ip), vehicle: saline 97 % of control | endpoint: median survival time, dose: 5.0 mg/kg/injection, schedule: Q01DX009 (ip), vehicle: saline 111 % of control | endpoint: median survival time, dose: 10.0 mg/kg/injection, schedule: Q01DX009 (ip), vehicle: saline 113 % of control | endpoint: median survival time, dose: 20.0 mg/kg/injection, schedule: Q01DX009 (ip), vehicle: saline 97 % of control

O=C(O)CC(=O)O.[NH-]CC(O)C[NH-].[Pt+2]
inactive: endpoint: median survival time, dose: 20.0 mg/kg/injection, schedule: Q04DX003 (ip), vehicle: water 96 % of control | endpoint: median survival time, dose: 40.0 mg/kg/injection, schedule: Q04DX003 (ip), vehicle: water 110 % of control

CC1CN=C(c2ccc(Br)cc2)O1 (stereo unspecified)
inactive: endpoint: mean survival time, dose: 100.0 mg/kg/injection, schedule: Q04DX003 (ip), vehicle: saline 103 % of control | endpoint: mean survival time, dose: 200.0 mg/kg/injection, schedule: Q04DX003 (ip), vehicle: saline 96 % of control | endpoint: mean survival time, dose: 400.0 mg/kg/injection, schedule: Q04DX003 (ip), vehicle: saline 103 % of control

Cc1onc(-c2ccccc2)c1C1=N/C(=C\c2ccc(N(C)C)cc2)C(=O)O1
inactive: [1] 94 % of control | [2] 113 % of control | endpoint: mean survival time, dose: 400.0 mg/kg/injection, schedule: Q04DX002 (ip), vehicle: saline with Tween-80 90 % of control

O=S1C2C3CC(C4C=CCC43)C2N1c1ccccc1 (stereo unspecified)
inactive: endpoint: mean survival time, dose: 100.0 mg/kg/injection, schedule: Q01DX001 (ip), vehicle: saline with Tween-80 92 % of control | [3] 97 % of control | endpoint: mean survival time, dose: 200.0 mg/kg/injection, schedule: Q01DX001 (ip), vehicle: saline with Tween-80 95 % of control | [4] 97 % of control | endpoint: mean survival time, dose: 400.0 mg/kg/injection, schedule: Q01DX001 (ip), vehicle: saline with Tween-80 90 % of control | [5] 94 % of control

Cc1noc(C)c1CO
inactive: endpoint: mean survival time, dose: 100.0 mg/kg/injection, schedule: Q01DX009 (ip), vehicle: saline 100 % of control | endpoint: mean survival time, dose: 200.0 mg/kg/injection, schedule: Q01DX009 (ip), vehicle: saline 101 % of control | endpoint: mean survival time, dose: 400.0 mg/kg/injection, schedule: Q01DX009 (ip), vehicle: saline 101 % of control

CN(C)/N=N/c1[nH]cnc1C(N)=O.[Cl][Cu][Cl]
inactive: endpoint: mean survival time, dose: 1.56 mg/kg/injection, schedule: Q04DX003 (ip), vehicle: water 97 % of control | endpoint: mean survival time, dose: 2.0 mg/kg/injection, schedule: Q01DX001 (ip), vehicle: distilled water + Tween-80 96 % of control | endpoint: mean survival time, dose: 3.13 mg/kg/injection, schedule: Q04DX003 (ip), vehicle: water 106 % of control | endpoint: mean survival time, dose: 4.0 mg/kg/injection, schedule: Q01DX001 (ip), vehicle: distilled water + Tween-80 94 % of control | endpoint: mean survival time, dose: 6.25 mg/kg/injection, schedule: Q04DX003 (ip), vehicle: water 95 % of control | endpoint: mean survival time, dose: 8.0 mg/kg/injection, schedule: Q01DX001 (ip), vehicle: distilled water + Tween-80 99 % of control | endpoint: mean survival time, dose: 12.5 mg/kg/injection, schedule: Q04DX003 (ip), vehicle: water 94 % of control | endpoint: mean survival time, dose: 16.0 mg/kg/injection, schedule: Q01DX001 (ip), vehicle: distilled water + Tween-80 88 % of control | endpoint: mean survival time, dose: 32.0 mg/kg/injection, schedule: Q01DX001 (ip), vehicle: distilled water + Tween-80 92 % of control

CC(=O)OC1C(O)C(OC(=O)c2ccccc2)C(OC(C)=O)C(OC(C)=O)C1OC(C)=O (stereo unspecified)
inactive: endpoint: mean survival time, dose: 200.0 mg/kg/injection, schedule: Q01DX009 (ip), vehicle: Klucel (hydroxypropylcellulose) (HPC) 91 % of control | endpoint: mean survival time, dose: 400.0 mg/kg/injection, schedule: Q01DX009 (ip), vehicle: Klucel (hydroxypropylcellulose) (HPC) 88 % of control

CC(=O)Nc1ccc(S(=O)(=O)CO)cc1
inactive: endpoint: mean survival time, dose: 12.5 mg/kg/injection, schedule: Q01DX009 (ip), vehicle: saline with Tween-80 97 % of control | endpoint: mean survival time, dose: 25.0 mg/kg/injection, schedule: Q01DX009 (ip), vehicle: saline with Tween-80 92 % of control and 97 % of control | endpoint: mean survival time, dose: 50.0 mg/kg/injection, schedule: Q01DX009 (ip), vehicle: saline with Tween-80 102 % of control and 108 % of control | [3] 101 % of control and 108 % of control | [4] 101 % of control and 103 % of control | [5] 101 % of control and 109 % of control

[Co+3].[NH-]CC(=O)O.[NH-]CC(=O)O.[NH-]CC(=O)O
inactive: endpoint: mean survival time, dose: 25.0 mg/kg/injection, schedule: Q04DX002 (ip), vehicle: saline with Tween-80 104 % of control and 101 % of control | endpoint: mean survival time, dose: 50.0 mg/kg/injection, schedule: Q04DX002 (ip), vehicle: saline with Tween-80 104 % of control and 96 % of control | [1] 104 % of control and 106 % of control | [2] 117 % of control

O=C1C[C@H]2[C@H](CO)[C@@H](OC(=O)c3ccc(-c4ccccc4)cc3)C[C@H]2O1
inactive: endpoint: mean survival time, dose: 100.0 mg/kg/injection, schedule: Q01DX001 (ip), vehicle: alcohol 94 % of control | endpoint: mean survival time, dose: 200.0 mg/kg/injection, schedule: Q01DX001 (ip), vehicle: alcohol 88 % of control | endpoint: mean survival time, dose: 400.0 mg/kg/injection, schedule: Q01DX001 (ip), vehicle: alcohol 92 % of control
